Where a name gives a salt, the structure may show the parent alone.
Key:
[1] = system: CFSE^max/CD34^+ CML cells; assay: CFSE-mediated tracking of quiescent cells, CML; type: cell-based, human
Procedure: (§1) CFSE-mediated tracking of cell division. Carboxyfluorescein diacetate succinimidyl diester (CFSE)-stained cells (CellTrace CFSE Proliferation Kit: Invitrogen) were cultured in the presence of the indicated drugs (dosed at time zero and at day three), and the cells were harvested after 3 or 6 days in culture, and stained with anti-CD34 PE, Annexin-V V450, and the viability stain 7-AAD (BD Bioscience) to determine the number of viable quiescent cells (CFSEmax/CD34^+/7-AAD− cells) and the percentage of quiescent and apoptosis-committed cells (CFSEmax/CD34+/Annexin V+/7-AAD±). Cells were sorted into dividing and quiescent populations for Western blot analysis. For assessment of mouse quiescent leukemic HSCs, Lin- cells from 8 week-induced SCLtTA/BCR-ABL1 mice were CFSE-stained and used as described above. Quiescent cells (CFSE^max/CD34^+) were reported as a fraction of the initial number of CD34^+ cells.

B lymphocytes = assay: B-lymphopenia induction; details: in vivo
PP2A [2] = biological target: T1, PP2A (Homo sapiens, UniProt P67775); assay: PP2A phosphatase assay; type: cell-based
T1 construct: PP2Ac assays from whole cell lysates; endogenous in cells; host or cells: CD34+/CD38- and CD34+/CD38+ primary CML and normal bone-marrow cells; immunoprecipitated with Millipore PP2Ac antibody
Procedure: PP2A phosphatase assay. PP2Ac assays from whole cell lysates were carried out using the PP2Ac immunoprecipitation phosphatase assay kit (Millipore). Briefly, protein lysates (50 μg) in 100 μl of 20 mM Hepes. pH 7.0, 100 mM NaCl, 5 μg of PP2Ac antibody (Millipore), and 25 μl of Protein A-agarose were added to 400 μl of 50 mM Tris, pH 7.0, 100 mM CaCl2, and IPs were carried out at 4° C. for 2 h. IPs were used in the phosphatase reaction according to the manufacturer's protocol.

S1PR1 = S1PR1 (Homo sapiens, UniProt P21453); assay: S1PR1 internalization; type: cell-based
[3] = system: β-catenin-driven (LEF/TCF) transcriptional activity; assay: LEF/TCF reporter assay; type: cell-based, human; details: CD34^+/CD38^− CML and 32D-BCR/ABL cells
Procedure: LEF/TCF reporter assay. CD34+/CD38− CML cells were transduced with pBAR or pfuBAR (negative control) ®-catenin lentiviral reporter constructs (54), puromycin-selected and treated with the indicated drugs. Luciferase was measured using the Bright-Glo Luciferase system (Promega).

CD34+/CD38− CML cells = assay: CFC/replating assay, CML cells; type: cell-based, human
Procedure: (§2) Long term culture-initiating cell (LTC-IC) and Colony-forming cell (CFC)/replating assays. 2×10^6 mononuclear CML cells were cultured with a 1:1 mixture of irradiated (80 Gy) IL-3/G-CSF-producing M2-10B4 and IL-3/KL-producing SI/SI murine fibroblasts in MyeloCult H5100 (StemCell Technologies) supplemented with hydrocortisone. Drugs were present during the first week of culture. Medium was replaced after 7 days, followed by weekly half-medium changes. After 6 weeks, adherent and floating cells were harvested and 5×10^4 cells plated into MethoCult H4435. LTC-IC-derived colonies were scored after 14 days. For CFC/replating, individual 14-day colonies from 10^3-10^5 CD34+/CD38− CML or 0.2×10^3-10^3 leukemic LSK cells plated in 0.9% H4435 or M3234 MethoCult, respectively, containing KL, G-CSF, GM-CSF, IL-3, IL-6, and Epo were replated and scored 2 weeks later.

CML cells = assay: Long term culture-initiating cell (LTC-IC) assay; type: cell-based, human; details: drug during first week of 6-week culture, vs untreated
Procedure: as §2

[4] = system: normal CD34^+ progenitors; assay: Toxicity to normal progenitors; type: cell-based, human; details: at concentrations that impair Ph^+ HSC survival
β-catenin = β-catenin immunofluorescence; type: cell-based, human; details: CD34^+/CD38^− CML, leukemic LSK, and 32D-BCR/ABL cells
Source text: Immunofluorescence and proximity ligation assay. CD34^+/CD38^− cells from CML patient samples or LSK cells derived from induced leukemic mice were sorted, treated in liquid culture with the indicated drugs and cytospun onto glass slides. Slides were fixed in 3.7% formaldehyde, penneabilized with 0.05% Triton X-100, and stained with an Anti-®-catenin primary antibody (Cell signaling), a secondary goat F(ab′) anti-rabbit conjugated to Alexa Fluor 647, and the nuclear stain DAPI (Invitrogen); slides were mounted with Slowfade antifade reagent (Invitrogen). Microphotographs were obtained with a Zeiss LSM 510 confocal laser-scanning microscope with C-Apochromat 63/1.2 W objective. A minimum of three fields for each slide were acquired. For the Proximity Ligation Assay (PLA) CD34+/CD38− CML cells were treated, fixed, and permeabilized as described above. The slides were then simultaneously stained with a mix of mouse anti-PP2A (Millipore) and rabbit anti-SET (Globozyme) antibodies. The PLA procedure (Duolink; Olink Bioscience) was performed according to manufacturer instructions. An average of 20 z-stack ([…]) were captured with a Zeiss LSM 510 confocal laser-scanning microscope with C-Apochromat 63/1.2 W objective; at least three fields/slide were acquired. Three-dimensional projections were generated and positive signals/cell were calculated by ImageJ software (NIH).

[5] = system: CML cells (CFSE^max/CD34^+, CD34^+/CD38^−, CD34^+); assay: Annexin-V/7-AAD apoptosis staining; type: cell-based, human; details: for effect on FTY720-induced apoptosis of quiescent cells: CD34^+ CML cells, GSK-3β inhibitor with FTY720
Procedure: as §1

PP2A [6] = biological target: T1, PP2A; details: Roberts et al., Cancer Res 2010; cited from earlier work

T1 sequence (P67775 whole entry): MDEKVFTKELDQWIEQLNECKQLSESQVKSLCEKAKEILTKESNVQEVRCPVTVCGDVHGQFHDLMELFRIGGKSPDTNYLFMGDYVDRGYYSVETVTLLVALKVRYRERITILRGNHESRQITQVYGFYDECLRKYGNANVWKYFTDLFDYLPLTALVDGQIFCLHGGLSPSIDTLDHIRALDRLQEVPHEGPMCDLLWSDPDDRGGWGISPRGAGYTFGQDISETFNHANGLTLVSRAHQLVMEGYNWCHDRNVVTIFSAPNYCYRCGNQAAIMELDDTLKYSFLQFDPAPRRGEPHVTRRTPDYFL
Chain of S1PR1 (P21453 whole entry, species assumed): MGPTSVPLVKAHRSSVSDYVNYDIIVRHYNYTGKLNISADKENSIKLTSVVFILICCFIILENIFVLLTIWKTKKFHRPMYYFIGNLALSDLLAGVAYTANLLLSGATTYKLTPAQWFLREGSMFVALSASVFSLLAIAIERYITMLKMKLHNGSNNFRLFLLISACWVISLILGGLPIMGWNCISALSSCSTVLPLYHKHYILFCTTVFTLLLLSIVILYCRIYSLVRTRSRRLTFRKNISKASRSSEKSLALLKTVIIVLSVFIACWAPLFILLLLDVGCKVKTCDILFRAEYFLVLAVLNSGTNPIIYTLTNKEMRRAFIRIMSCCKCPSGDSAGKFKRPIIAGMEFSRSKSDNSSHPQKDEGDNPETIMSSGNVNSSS

For `CCCC(N)(CO)CCc1ccc(OCCCCCC(C)C)cc1` (stereo not shown) [OSU-2S], the “effect on CML CFSE^max cells” value ([1]; CML n=9) was “significantly reduced”, the B-lymphopenia (B lymphocytes) was “without triggering S1PR1 internalization or inducing B-lymphopenia” and the PP2A activation (PP2A [2]) was “activated PP2A”. For the same compound, the S1PR1 internalization (S1PR1) was “without triggering S1PR1 internalization”.

In the case of `C=C[C@@]1(C)CC(=O)[C@@H]2[C@@]3(C)CCCC(C)(C)[C@@H]3[C@H](O)[C@H](OC(C)=O)[C@@]2(C)O1` [1,9-dideoxy-forskolin], the “β-catenin transcriptional activity (LEF/TCF luciferase)” value [3] is reported as “markedly impaired”.

For `Cc1cnc(Nc2ccc(OCCN3CCCC3)cc2)nc1Nc1cccc(S(=O)(=O)NC(C)(C)C)c1` [TG101348], the “reduction in replating efficiency” value (CD34+/CD38− CML cells) was roughly 75%, the “decrease in CFSE^max (quiescent) CML HSCs” value ([1]; CFSE-labeled CD34^+ CML cells, FTY720 at 2.5 μM) was 50% and the “β-catenin transcriptional activity (LEF/TCF luciferase)” value [3] was “markedly impaired”. The “inhibition of LTC-ICs” value (CML cells) was roughly 80% and the “toxicity to normal CD34^+ progenitors” value [4] was “toxicity of TG101348 to normal CD34^+ progenitors”.

In the case of `C=C1[C@@H](O)[C@@H]2O[C@]3(CC[C@H](/C=C/[C@@H](C)[C@@H]4CC(C)=C[C@@]5(O[C@H](C[C@@](C)(O)C(=O)O)CC[C@H]5O)O4)O3)CC[C@H]2O[C@@H]1[C@@H](O)C[C@H](C)[C@H]1O[C@@]2(CCCCO2)CC[C@H]1C` [okadaic acid], the “effect on FTY720-induced decrease of CFSE^max HSCs” value ([1]; 0.25 nM okadaic acid with FTY720) is reported as “antagonized”.

For `Cc1ccc(NC(=O)c2ccc(CN3CCN(C)CC3)cc2)cc1Nc1nccc(-c2cccnc2)n1` [imatinib, imatinib mesylate], the β-catenin degradation (β-catenin) was “but not imatinib (n=3) induced β-catenin degradation”.

With `Cn1cc(C2=C(c3ccc(Cl)cc3Cl)C(=O)NC2=O)c2ccccc21` [SB216763] the “effect on FTY720-induced apoptosis of quiescent cells” value [5] was “abrogated FTY720-induced apoptosis”.

In the case of `CCCCCCCCc1ccc(CCC(N)(CO)COP(=O)(O)O)cc1` (stereo not shown) [FTY-P], the “apoptosis of quiescent/HSC-enriched CML cells” value ([5]; CFSE^max/CD34^+ or CD34^+/CD38^− CML cells) is listed as “failed to induce apoptosis” and the PP2A activity induction (PP2A [6]) is listed as “did not induce PP2A activity”.

In the case of `[Cl-].[Li+]` [LiCl, lithium chloride], the “effect on FTY720-induced apoptosis of quiescent cells” value [5] is reported as “abrogated FTY720-induced apoptosis”.
